Literature values in patent US4101676A, “Diphenylpropylamines to treat depression” (Beecham Group Limited, priority 1973, dated 1978).

Test system: central nervous system
Settings: Barron et al, J. Pharm. Pharmacol., 17, 509 (1965); cited from earlier work

## CN(C)CCC(O)(c1ccccc1)c1ccccc1 [1:1-diphenyl-3-dimethylaminopopan-1-ol]
  effects on the central nervous system: considerable effects on the central nervous system
  side effects: anorexia, diuresis, ataxia and drowsiness
